Data on 2 compounds can be found in patent publication US6165984A, “Naringin and naringenin as inhibitors of acyl CoA-cholesterol-o-acyltransferase” (Korea Institute of Science & Technology, priority 1997, dated 2000).

The test system of one series is liver function. As to conditions: in vivo.
The nature of series [1]: Plasma total cholesterol, HDL-cholesterol and neutral lipid in rats on high-cholesterol diet (Example 4). It is filed as in vivo, Sprague-Dawley rat. As to conditions: 1% cholesterol diet plus 0.1% compound, six weeks; for HDL-C: control 22.2; for TG (triglyceride): control 99.2 ± 18.9; for Total-C (total plasma cholesterol): control 147.8 ± 34.8. An excerpt:
30 four-week-old Sprague-Dawley rats (Taihan laboratory animal center, Korea) each weighing about 90 to 110 g were evenly divided into three dietary groups by a randomized block design. The rats of the three groups were fed with three different high-cholesterol diets, i.e., AIN-76 laboratory animal diet (ICN Biochemicals, Cleveland, Ohio, U.S.A.) containing 1% cholesterol (Control group), and 1% cholesterol plus 0.1% naringin or naringenin, respectively.
The effect of administering naringin or naringenin to rats on the plasma cholesterol and neutral lipid content was determined as follows.
(§1) Blood samples were taken from the rats of the three dietary groups and plasma HDL fractions were separated therefrom by using HDL-cholesterol reagent (Sigma Chemical Co., Cat. No. 352-3) containing dextran-sulfate. Total cholesterol and HDL-cholesterol levels were determined by using Sigma Diagnostic Kit Cat. No. 352-100(Sigma Chemical Co., U.S.A.) (Allain et al., Clin. Chem., 20, 470-475(1974)). Neutral lipid level was determined by using Sigma Diagnostic Kit Cat. No. 339-50(Bucolo, G. and David, H., Clin. Chem., 19, 476-482(1973)). The result is shown in Table III, wherein the total plasma cholesterol levels in naringin and naringenin-fed rat groups decreased by 32% and 18%, respectively, as compared with that of the control group.

For series [2] the following is noted: literature; cited from earlier work.
Series [3] is described as follows: Blood total cholesterol and triglyceride in cholesterol-fed rabbits (Example 6). The class given is in vivo, New Zealand White rabbit. As to conditions: 1% cholesterol diet, 6 weeks, 1 mg/kg Lovastatin, 0.1% naringin or naringenin; for Triglyceride: control 56; for Total cholesterol: control 1143. The method, then: as §1, with “U.S.A.) (Allain” left out, “group. […] RC4 diet comprises 7.6% moisture, 22.8% crude protein, 2.8% crude fat, 8.8% crude ash, 14.4% crude cellulose and 43.6% soluble nitrogen-free substances. The rabbits were bred for 6 weeks while being allowed free access to the diets and water. Further, blood samples were taken from the rabbits and total cholesterol and triglyceride levels were determined in accordance with the same procedure in Example 4.” for “group.”

For series [4], the system named is macrophage-lipid complex on the arterial endothelium. As to the kind of experiment: Fatty streak analysis: macrophage-lipid complex on main artery of cholesterol-fed rabbits (Example 6). The class given is in vivo, New Zealand White rabbit. The conditions noted are these: for inhibition of accumulation of macrophage-lipid complex on the arterial endothelium (conclusion): 0.1% in 1% cholesterol diet; for area of macrophage-lipid complex accumulated on the arterial endothelium, compared to control group / M-L (macrophage-lipid) complex area: 1% cholesterol diet, 6 weeks, 0.1% naringin or naringenin; for M-L (macrophage-lipid) complex area: proportion of total arterial area, control 35. An excerpt:
RC4 diet comprises 7.6% moisture, 22.8% crude protein, 2.8% crude fat, 8.8% crude ash, 14.4% crude cellulose and 43.6% soluble nitrogen-free substances. The rabbits were bred for 6 weeks while being allowed free access to the diets and water. The rabbits bred in (Step 1) were sacrificed and their chest were incised. The main artery was cut out therefrom in a length of about 5 cm downward from the site 1 cm above the aortic valve and the fat surrounding the main artery was removed. The main artery was incised in the middle along the longitudinal axis and pinned to a dish. The moist artery was photographed and, then, staining of fatty streak was carried out in accordance with the method of […]., et al. (J. Lab. Clin. […] A part of the incised main artery was washed three times by 2 min. with anhydrous propylene glycol and stained for 30 min. with a saturated solution of Oil Red O (ORO, Sigma Co.) dissolved in propylene glycol. Thereafter, the artery was washed twice by 3 min. with 85% propylene glycol to remove remaining staining solution and, then washed with physical saline. The artery was photographed and the photograph was traced. The area of stained region (fatty streak region) was determined with an image analyzer (LEICA, Q-600, Germany) and its proportion (%) to the total arterial area was calculated. On the other hand, the other part of the main artery was stained in accordance with hematoxylin-eosin (H&E) and Masson's trichrome staining methods and observed under a microscope to confirm whether the macrophage-lipid complexes were accumulated in the intima, internus, elastic lamina and media.

Regarding `O=C1C[C@@H](c2ccc(O)cc2)Oc2cc(O)cc(O)c21` [naringenin], in the series on liver function, the “adverse effects on the liver function” value is “no adverse effects on the liver function”. Moreover, in series [1], the “decrease of total plasma cholesterol level compared with control group” value is 18%, the HDL-C was determined as 23.4 mg/dL, the “TG (triglyceride)” value came out at 103.4 ± 18.2 mg/dL and the “Total-C (total plasma cholesterol)” value amounted to 120.9 ± 25.9 mg/dL. In addition, the reported activities result in series [2] is “anti-cancer, anti-viral and cholesterol lowering activities”. In series [3], this compound showed a Triglyceride of 70 mg/dL and a Total cholesterol of 1350 mg/dL. Further, the “inhibition of accumulation of macrophage-lipid complex on the arterial endothelium (conclusion)” value in series [4] was “strongly inhibit”. For the same compound, in series [4] (1 mg/kg Lovastatin), the “area of macrophage-lipid complex accumulated on the arterial endothelium, compared to control group” value is “decreased significantly” and the “M-L (macrophage-lipid) complex area” value was 13%.

Consider `C[C@@H]1O[C@@H](O[C@H]2[C@H](Oc3cc(O)c4c(c3)O[C@H](c3ccc(O)cc3)CC4=O)O[C@H](CO)[C@@H](O)[C@@H]2O)[C@H](O)[C@H](O)[C@H]1O` [naringin, Naringin], for which the “adverse effects on the liver function” value in the series with liver function was “no adverse effects on the liver function”. Besides, in series [1], the “decrease of total plasma cholesterol level compared with control group” value was 32%, the HDL-C is 24.0 mg/dL, the “TG (triglyceride)” value turned out to be 86.7 ± 14.6 mg/dL and the “Total-C (total plasma cholesterol)” value was found to be 100.8 ± 16.1 mg/dL. The reported activities entry in series [2] is “anti-cancer, anti-viral and cholesterol lowering activities”. In series [3], the Triglyceride was determined as 72 mg/dL and the Total cholesterol stood at 1367 mg/dL. Also, in series [4] (1 mg/kg Lovastatin, 0.1% naringin, control: thick layer), the “layer of macrophage-lipid complex on the arterial endothelium (FIGS. 1A-1C)” value was “no or very thin layers of macrophage-lipid complex”. Also, in series [4], the “inhibition of accumulation of macrophage-lipid complex on the arterial endothelium (conclusion)” value is listed as “strongly inhibit”. In addition, in series [4] (1 mg/kg Lovastatin), the “area of macrophage-lipid complex accumulated on the arterial endothelium, compared to control group” value is “decreased significantly” and the “M-L (macrophage-lipid) complex area” value turned out to be 12%.
